Counter-ions that a name gives are not always drawn.
System: 4T1 cells
Assay: Cytotoxicity of doxorubicin-loaded CLENs (SRB assay)
Type: cell-based, murine
Settings: 24 h, free doxorubicin 0.5 μmol/ml
Protocol: 4T1 cells were seeded at 1×10^4 per ml in a 48-well plate. Cells were exposed to different concentrations of doxorubicin-loaded CLENs (4T1, BT-20, and SKBR-3). SRB assay was used to determine percent of cell viability 24 hours following exposure to doxorubicin (5 mol %). Error bars indicate mean±S.D. (n=6).
Sulforhodamine B (SRB) assay was used to determine percent viability of control based on the amount of basic proteins in viable cells following exposure to different CLENs. Cells were seeded at 1×10^4 per ml in a 48-well plate. Columns of cells in the 48 well plate were exposed to either doxil, free doxorubicin, SKBR-3, BT-20 or 4T1 CLENs-loaded with doxorubicin (5 mol %). […] Finally, 1 mL of 1×PBS was added to each well and the plate was analyzed using a fluorescence microplate reader. The fluorescence intensity was measured at excitation wavelength of 540/20 nm and emission wavelength of 590/20 nm using FLX 800 Fluorescence Microplate Reader (Bio-tech Instruments, Winooski, VT).
Enhanced cellular uptake and selective drug targeting are important features of a drug delivery system, but how each translates overall to therapy is critical to success. For this reason, cytotoxicity of three different doxorubicin-loaded CLENs was evaluated for 4T1, BT-20 and SKBR-3 variety, doxil, and free doxorubicin (0.5 μmol/ml) against the growth of 4T1 cells in vitro. […]

## COc1cccc2c1C(=O)c1c(O)c3c(c(O)c1C2=O)C[C@@](O)(C(=O)CO)C[C@@H]3O[C@H]1C[C@H](N)[C@H](O)[C@H](C)O1 [free doxorubicin, Doxorubicin hydrochloride]
  cytotoxicity against growth of 4T1 cells (comparison in words): No significant difference in cytotoxicity

From US12714671B2, “Cell membrane lipid-extracted nanoparticles (CLENs) for selective targeting, image analysis and cancer therapy” (priority 2018, dated 2026)
